Laboratory results published in patent US7709636B2, “Pyrazole sulfonylurea compound and herbicide” (Nissan Chemical Industries, Ltd., priority 2004, dated 2010).

What was measured:
[1] = test system: direct sown rice; assay: Herbicidal effect test by foliage treatment; assay type: in vivo, Oryza sativa; settings: 1.6 g/a; foliage treatment after growth of 14 days; 3 weeks after treatment
Method in brief: (§1)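 Greenhouse-grown plants (25–30 °C) sprayed on foliage 14 days after sowing with water-diluted wettable powder at set formulation rates. Herbicidal effect scored visually 3 weeks after treatment on a graded scale.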

[2] = test system: direct sown rice; assay: Herbicidal effect test by soil treatment; assay type: in vivo, Oryza sativa; settings: 1.6 g/a, 3 weeks after treatment
Method in brief: (§2)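 Seeds were sown in sterilized diluvial soil under about 1.5 cm cover, then the soil surface was sprayed uniformly with a water-diluted wettable powder at a predetermined formulation amount. Herbicidal effect was scored per species 3 weeks after treatment.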

[3] = test system: Echinochloa crus-galli; assay: Herbicidal effect test in submerged condition by treatment during weed-growth stage (1); assay type: in vivo; settings: 0.64 g/a, treated at 1st to 2nd leaf stage, 3 weeks after treatment
Method in brief: (§3)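 Paddy-soil pots flooded to 4 cm water depth were sown and grown in a greenhouse at 25 to 30° C until weeds reached 1st to 2nd leaf stage. A wettable powder diluted in water to a predetermined formulation amount was applied to the water surface. Herbicidal effect was scored 3 weeks after treatment against set criteria.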

[4] = test system: Scirpus juncoides; assay: as above; assay type: in vivo; settings: 0.64 g/a, treated at 1st to 2nd leaf stage, 3 weeks after treatment
Method in brief: as §3

[5] = test system: Monochoria vaginalis; assay: as above; assay type: in vivo; settings: 0.64 g/a, treated at 1st to 2nd leaf stage, 3 weeks after treatment
Method in brief: as §3

[6] = test system: Beta vulgaris (beet); assay: Herbicidal effect test by foliage treatment; assay type: in vivo; settings: 1.6 g/a; foliage treatment after growth of 14 days; 3 weeks after treatment
Method in brief: as §1

[7] = test system: Echinochloa crus-galli; assay: Herbicidal effect test by foliage treatment; assay type: in vivo; settings: 1.6 g/a; foliage treatment after growth of 14 days; 3 weeks after treatment
Method in brief: as §1

[8] = test system: Setaria viridis; assay: Herbicidal effect test by foliage treatment; assay type: in vivo; settings: 1.6 g/a; foliage treatment after growth of 14 days; 3 weeks after treatment
Method in brief: as §1

[9] = test system: Polygonum blumei; assay: Herbicidal effect test by foliage treatment; assay type: in vivo; settings: 1.6 g/a; foliage treatment after growth of 14 days; 3 weeks after treatment
Method in brief: as §1

[10] = test system: Amaranthus retroflexus; assay: Herbicidal effect test by foliage treatment; assay type: in vivo; settings: 1.6 g/a; foliage treatment after growth of 14 days; 3 weeks after treatment
Method in brief: as §1

[11] = test system: Chenopodium album; assay: Herbicidal effect test by foliage treatment; assay type: in vivo; settings: 1.6 g/a; foliage treatment after growth of 14 days; 3 weeks after treatment
Method in brief: as §1

[12] = test system: Avena fatua; assay: Herbicidal effect test by foliage treatment; assay type: in vivo; settings: 1.6 g/a; foliage treatment after growth of 14 days; 3 weeks after treatment
Method in brief: as §1

[13] = test system: Ambrosia elatior; assay: Herbicidal effect test by foliage treatment; assay type: in vivo; settings: 1.6 g/a; foliage treatment after growth of 14 days; 3 weeks after treatment
Method in brief: as §1

[14] = test system: Black-grass; assay: Herbicidal effect test by foliage treatment; assay type: in vivo; settings: 1.6 g/a; foliage treatment after growth of 14 days; 3 weeks after treatment
Method in brief: as §1

[15] = test system: Abutilon avicennae; assay: Herbicidal effect test by foliage treatment; assay type: in vivo; settings: 1.6 g/a; foliage treatment after growth of 14 days; 3 weeks after treatment
Method in brief: as §1

[16] = test system: Stellaria media; assay: Herbicidal effect test by foliage treatment; assay type: in vivo; settings: 1.6 g/a; foliage treatment after growth of 14 days; 3 weeks after treatment
Method in brief: as §1

[17] = test system: soybean (Glycine max); assay: Herbicidal effect test by foliage treatment; assay type: in vivo; settings: 1.6 g/a; foliage treatment after growth of 14 days; 3 weeks after treatment
Method in brief: as §1

[18] = test system: corn (Zea mays); assay: Herbicidal effect test by foliage treatment; assay type: in vivo; settings: 1.6 g/a; foliage treatment after growth of 14 days; 3 weeks after treatment
Method in brief: as §1

[19] = test system: Triticum aestivum (wheat); assay: Herbicidal effect test by foliage treatment; assay type: in vivo; settings: 1.6 g/a; foliage treatment after growth of 14 days; 3 weeks after treatment
Method in brief: as §1

[20] = test system: Digitaria adscendes; assay: Herbicidal effect test by foliage treatment; assay type: in vivo; settings: 1.6 g/a; foliage treatment after growth of 14 days; 3 weeks after treatment
Method in brief: as §1

[21] = test system: Echinochloa crus-galli; assay: Herbicidal effect test in submerged condition by treatment before weed-generation (1); assay type: in vivo; settings: 0.64 g/a, water surface treated on day of sowing, 3 weeks after treatment
Method in brief: (§4)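 Alluvial soil flooded to 4 cm water depth; Echinochloa crus-galli, Scirpus juncoides and Monochoria vaginalis seeds sown, rice transplanted at 2.5-leaf stage. Wettable powder diluted in water applied to water surface on sowing day; greenhouse 25–30° C. Effect scored 0–5 by herbicidal rate after 3 weeks.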

[22] = test system: Scirpus juncoides; assay: as above; assay type: in vivo; settings: 0.64 g/a, water surface treated on day of sowing, 3 weeks after treatment
Method in brief: as §4

[23] = test system: Monochoria vaginalis; assay: as above; assay type: in vivo; settings: 0.64 g/a, water surface treated on day of sowing, 3 weeks after treatment
Method in brief: as §4

[24] = test system: Beta vulgaris (beet); assay: Herbicidal effect test by soil treatment; assay type: in vivo; settings: 1.6 g/a, 3 weeks after treatment
Method in brief: as §2

[25] = test system: Echinochloa crus-galli; assay: Herbicidal effect test by soil treatment; assay type: in vivo; settings: 1.6 g/a, 3 weeks after treatment
Method in brief: as §2

[26] = test system: Setaria viridis; assay: Herbicidal effect test by soil treatment; assay type: in vivo; settings: 1.6 g/a, 3 weeks after treatment
Method in brief: as §2

[27] = test system: Polygonum blumei; assay: Herbicidal effect test by soil treatment; assay type: in vivo; settings: 1.6 g/a, 3 weeks after treatment
Method in brief: as §2

[28] = test system: Amaranthus retroflexus; assay: Herbicidal effect test by soil treatment; assay type: in vivo; settings: 1.6 g/a, 3 weeks after treatment
Method in brief: as §2

[29] = test system: Chenopodium album; assay: Herbicidal effect test by soil treatment; assay type: in vivo; settings: 1.6 g/a, 3 weeks after treatment
Method in brief: as §2

[30] = test system: Avena fatua; assay: Herbicidal effect test by soil treatment; assay type: in vivo; settings: 1.6 g/a, 3 weeks after treatment
Method in brief: as §2

[31] = test system: Ambrosia elatior; assay: Herbicidal effect test by soil treatment; assay type: in vivo; settings: 1.6 g/a, 3 weeks after treatment
Method in brief: as §2

[32] = test system: Black-grass; assay: Herbicidal effect test by soil treatment; assay type: in vivo; settings: 1.6 g/a, 3 weeks after treatment
Method in brief: as §2

[33] = test system: Abutilon avicennae; assay: Herbicidal effect test by soil treatment; assay type: in vivo; settings: 1.6 g/a, 3 weeks after treatment
Method in brief: as §2

[34] = test system: Stellaria media; assay: Herbicidal effect test by soil treatment; assay type: in vivo; settings: 1.6 g/a, 3 weeks after treatment
Method in brief: as §2

[35] = test system: soybean (Glycine max); assay: Herbicidal effect test by soil treatment; assay type: in vivo; settings: 1.6 g/a, 3 weeks after treatment
Method in brief: as §2

[36] = test system: corn (Zea mays); assay: Herbicidal effect test by soil treatment; assay type: in vivo; settings: 1.6 g/a, 3 weeks after treatment
Method in brief: as §2

[37] = test system: Triticum aestivum (wheat); assay: Herbicidal effect test by soil treatment; assay type: in vivo; settings: 1.6 g/a, 3 weeks after treatment
Method in brief: as §2

[38] = test system: Digitaria adscendes; assay: Herbicidal effect test by soil treatment; assay type: in vivo; settings: 1.6 g/a, 3 weeks after treatment
Method in brief: as §2

Compound: COc1cc(OC)nc(NC(=O)NS(=O)(=O)c2c(C3=NOCC(C)(C)O3)c(C)nn2C)n1 [Compound 7, N-((4,6-dimethoxypyrimidin-2-yl)aminocarbonyl)-4-(5,5-dimethyl-5H,6H-1,4,2-dioxadin-3-yl)-1,3-dimethylpyrazole-5-sulfonamide]
- herbicidal effect, d: direct sown rice [1]: 2 (Herbicidal rate 20% or more and less than 40%)
- herbicidal effect, d: direct sown rice [2]: 5 (Herbicidal rate 90% or more (almost complete death))
- herbicidal effect, A: Echinochloa crus-galli [3]: 5 (Herbicidal rate 90% or more (almost complete death))
- herbicidal effect, B: Scirpus juncoides [4]: 5 (Herbicidal rate 90% or more (almost complete death))
- herbicidal effect, C: Monochoria vaginalis [5]: 5 (Herbicidal rate 90% or more (almost complete death))
- herbicidal effect, f: Beta vulgaris (beet) [6]: 5 (Herbicidal rate 90% or more (almost complete death))
- herbicidal effect, A: Echinochloa crus-galli [7]: 5 (Herbicidal rate 90% or more (almost complete death))
- herbicidal effect, E: Setaria viridis [8]: 4 (Herbicidal rate 70% or more and less than 90%)
- herbicidal effect, L: Polygonum blumei [9]: 5 (Herbicidal rate 90% or more (almost complete death))
- herbicidal effect, J: Amaranthus retroflexus [10]: 4 (Herbicidal rate 70% or more and less than 90%)
- herbicidal effect, K: Chenopodium album [11]: 5 (Herbicidal rate 90% or more (almost complete death))
- herbicidal effect, F: Avena fatua [12]: 5 (Herbicidal rate 90% or more (almost complete death))
- herbicidal effect, I: Ambrosia elatior [13]: 5 (Herbicidal rate 90% or more (almost complete death))
- herbicidal effect, G: Black-grass [14]: 5 (Herbicidal rate 90% or more (almost complete death))
- herbicidal effect, H: Abutilon avicennae [15]: 5 (Herbicidal rate 90% or more (almost complete death))
- herbicidal effect, M: Stellaria media [16]: 5 (Herbicidal rate 90% or more (almost complete death))
- herbicidal effect, c: soybean (Glycine max) [17]: 5 (Herbicidal rate 90% or more (almost complete death))
- herbicidal effect, b: corn (Zea mays) [18]: 5 (Herbicidal rate 90% or more (almost complete death))
- herbicidal effect, e: Triticum aestivum (wheat) [19]: 5 (Herbicidal rate 90% or more (almost complete death))
- herbicidal effect, D: Digitaria adscendes [20]: 5 (Herbicidal rate 90% or more (almost complete death))
- herbicidal effect, A: Echinochloa crus-galli [21]: 5 (Herbicidal rate 90% or more (almost complete death))
- herbicidal effect, B: Scirpus juncoides [22]: 5 (Herbicidal rate 90% or more (almost complete death))
- herbicidal effect, C: Monochoria vaginalis [23]: 5 (Herbicidal rate 90% or more (almost complete death))
- herbicidal effect, f: Beta vulgaris (beet) [24]: 5 (Herbicidal rate 90% or more (almost complete death))
- herbicidal effect, A: Echinochloa crus-galli [25]: 4 (Herbicidal rate 70% or more and less than 90%)
- herbicidal effect, E: Setaria viridis [26]: 4 (Herbicidal rate 70% or more and less than 90%)
- herbicidal effect, L: Polygonum blumei [27]: 5 (Herbicidal rate 90% or more (almost complete death))
- herbicidal effect, J: Amaranthus retroflexus [28]: 5 (Herbicidal rate 90% or more (almost complete death))
- herbicidal effect, K: Chenopodium album [29]: 5 (Herbicidal rate 90% or more (almost complete death))
- herbicidal effect, F: Avena fatua [30]: 4 (Herbicidal rate 70% or more and less than 90%)
- herbicidal effect, I: Ambrosia elatior [31]: 5 (Herbicidal rate 90% or more (almost complete death))
- herbicidal effect, G: Black-grass [32]: 5 (Herbicidal rate 90% or more (almost complete death))
- herbicidal effect, H: Abutilon avicennae [33]: 4 (Herbicidal rate 70% or more and less than 90%)
- herbicidal effect, M: Stellaria media [34]: 5 (Herbicidal rate 90% or more (almost complete death))
- herbicidal effect, c: soybean (Glycine max) [35]: 3 (Herbicidal rate 40% or more and less than 70%)
- herbicidal effect, b: corn (Zea mays) [36]: 4 (Herbicidal rate 70% or more and less than 90%)
- herbicidal effect, e: Triticum aestivum (wheat) [37]: 5 (Herbicidal rate 90% or more (almost complete death))
- herbicidal effect, D: Digitaria adscendes [38]: 4 (Herbicidal rate 70% or more and less than 90%)
